The values that follow come from ChEMBL document CHEMBL1152712, “5-Hydroxyindole-type alkaloids, as Candida albicans isocitrate lyase inhibitors, from the tropical sponge Hyrtios sp” (Bioorg Med Chem Lett, 2009).

In one experiment the test system is Candida albicans. In words: Antimicrobial activity against Candida albicans ATCC 10231. In kind it is functional.
Another experiment addresses Isocitrate lyase (Candida albicans, UniProt Q9P8Q7). In words: Inhibition of Candida albicans isocitrate lyase.

In brackets after ≈: the same amount, converted by molar mass.

Isocitrate lyase, sequence (Q9P8Q7 whole entry): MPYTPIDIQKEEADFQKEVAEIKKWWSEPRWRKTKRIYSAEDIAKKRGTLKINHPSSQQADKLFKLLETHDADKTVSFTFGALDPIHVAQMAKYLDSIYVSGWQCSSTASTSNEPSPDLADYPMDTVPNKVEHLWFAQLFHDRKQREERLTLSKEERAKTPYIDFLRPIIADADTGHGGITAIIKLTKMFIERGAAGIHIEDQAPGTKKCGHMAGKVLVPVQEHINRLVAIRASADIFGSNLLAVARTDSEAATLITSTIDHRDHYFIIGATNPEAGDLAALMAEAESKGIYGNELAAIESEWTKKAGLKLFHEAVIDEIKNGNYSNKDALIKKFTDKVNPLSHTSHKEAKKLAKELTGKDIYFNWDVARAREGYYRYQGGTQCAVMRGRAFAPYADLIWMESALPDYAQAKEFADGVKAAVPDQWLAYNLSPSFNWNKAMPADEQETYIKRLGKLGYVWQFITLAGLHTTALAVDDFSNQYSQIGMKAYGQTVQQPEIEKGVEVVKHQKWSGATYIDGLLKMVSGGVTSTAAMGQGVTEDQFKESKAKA

One may read the MIC as the smallest concentration in the dilution series that meets the test's criterion for growth inhibition. Read a low MIC as a more susceptible organism. What is called IC50 is the midpoint of a concentration-inhibition curve. A low value points to inhibition by little substance. `NCCc1c[nH]c2ccc(O)cc12` [SEROTONIN] showed a minimal inhibitory concentration (MIC) with Candida albicans above 1130 µM. The compound further yielded a half-inhibitory concentration (IC50) against Isocitrate lyase of 301 µM.

The compound `C[C@@H]1[C@H](O)[C@@H](C)/C=C/C=C/C=C/C=C/C=C/C=C/C=C/[C@H](O[C@@H]2O[C@H](C)[C@@H](O)[C@H](N)[C@@H]2O)C[C@@H]2O[C@](O)(C[C@@H](O)C[C@@H](O)[C@H](O)CC[C@@H](O)C[C@@H](O)CC(=O)O[C@H]1C)C[C@H](O)[C@H]2C(=O)O` [AMPHOTERICIN B] came in with a minimal inhibitory concentration (MIC) against Candida albicans of 1.7 µM (≈ 1.57 µg/mL).

In the experiment with Candida albicans, `O=C(O)C1=NCCc2c1[nH]c1ccc(O)cc21` showed a minimum inhibitory concentration (MIC) above 869 µM. Also, it took 380 µM to reach half-maximal inhibition against Isocitrate lyase (IC50). `O=C1NCCc2c1[nH]c1ccc(O)cc21`: the minimum inhibitory concentration (MIC) in the experiment on Candida albicans was above 989 µM. Moreover, the IC50 on Isocitrate lyase was above 989 µM.

On to `O=Cc1c[nH]c2ccc(O)cc12`, for which, in the experiment with Candida albicans, the minimum inhibitory concentration (MIC) was above 1020 µM. The midpoint of inhibition against Isocitrate lyase, the IC50, lay at 247 µM. As to `O=C(CO)c1c[nH]c2ccc(O)cc12` [HYRTIOSIN A], in the experiment with Candida albicans, the MIC was above 1050 µM. On Isocitrate lyase, this compound returned an IC50 of 318 µM. Taken in the same sequence, the figures for `O=C(C(=O)c1c[nH]c2ccc(O)cc12)c1c[nH]c2ccc(O)cc12` [HYRTIOSIN B] were above 624 µM and 89 µM. Taken in the same sequence, the figures for `COC(=O)c1c[nH]c2ccc(O)cc12` were above 1050 µM and 800 µM. Take `O=C(O)CC[N+](=O)[O-]`: the MIC against Candida albicans is above 1690 µM.
